Legend:
[1] = system: Cabbage Looper (CL) (Trichoplusia ni); assay: Bioassays on CL, 128-well diet tray assay; assay type: in vivo; conditions: 168 h, 50 μg/cm^2 on artificial diet, second instar larvae, five to seven days, 25° C., read-out: CL Rating (percent mortality)
Procedure: (§1) Certain molecules disclosed in this document were tested against BAW, CEW and CL using procedures described in the following examples. In the reporting of the results, the “BAW & CEW & CL Rating Table” was used (See Table Section).
Bioassays on CL (Trichoplusia ni)
Bioassays on CL were conducted using a 128-well diet tray assay. One to five second instar CL larvae were placed in each well (3 mL) of the diet tray that had been previously filled with 1 mL of artificial diet to which 50 μg/cm^2 of the test compound (dissolved in 50 μL of 90:10 acetone-water mixture) had been applied (to each of eight wells) and then allowed to dry. Trays were covered with a clear self-adhesive cover, and held at 25° C., 14:10 light-dark for five to seven days. Percent mortality was recorded for the larvae in each well; activity in the eight wells was then averaged. The results are indicated in the table entitled “Table 4: Assay Results Part 2” (See Table Section).

[2] = system: Beet Armyworm (BAW) (Spodoptera exigua); assay: Bioassays on BAW, 128-well diet tray assay; assay type: in vivo; conditions: Spodoptera exigua, 168 h; 50 μg/cm^2 on artificial diet, second instar larvae, five to seven days, 25° C.; read-out: BAW Rating (percent mortality)
Procedure: as §1
Bioassays on BAW (Spodoptera exigua)
Bioassays on BAW were conducted using a 128-well diet tray assay. One to five second instar BAW larvae were placed in each well (3 mL) of the diet tray that had been previously filled with 1 mL of artificial diet to which 50 μg/cm^2 of the test compound (dissolved in 50 μL of 90:10 acetone-water mixture) had been applied (to each of eight wells) and then allowed to dry. Trays were covered with a clear self-adhesive cover, and held at 25° C., 14:10 light-dark for five to seven days. Percent mortality was recorded for the larvae in each well; activity in the eight wells was then averaged. The results are indicated in the tables entitled “Table 3: Assay Results Part 1” and “Table 4: Assay Results Part 2” (See Table Section).

Structure (SMILES)	mortality at 50 µg/cm2 [1]	mortality at 50 µg/cm2 [2]
O=C(NC1(C(=S)NCC(F)(F)F)CC1)c1ccc(/C=C/C(c2cc(Cl)c(Cl)c(Cl)c2)C(F)(F)F)cc1Cl (stereo not shown) [Compound P1010]	50 to 100%	50 to 100%
O=C(NC1(C(=O)NCC(F)(F)F)CC1)c1ccc(/C=C/C(c2cc(Cl)c(Br)c(Cl)c2)C(F)(F)F)cc1Br (stereo not shown) [FA5]	50 to 100%	50 to 100%
O=C(NC1(C(=O)NC2CCCOC2)CC1)c1ccc(/C=C/C(c2cc(Cl)c(Cl)c(Cl)c2)C(F)(F)F)cc1Br (stereo not shown) [FA47]	50 to 100%	50 to 100%
O=C(NC1CC1(F)F)c1ccc(/C=C/C(c2cc(Cl)c(Cl)c(Cl)c2)C(F)(F)F)cc1Br (stereo not shown) [Compound P31]	50 to 100%	50 to 100%
Cn1nc(C(F)(F)F)cc1NC(=O)C1(NC(=O)c2ccc(/C=C/C(c3cc(Cl)c(Cl)c(Cl)c3)C(F)(F)F)cc2Br)CC1 (stereo not shown) [FA48]	50 to 100%	50 to 100%
O=C(NC1(C(=O)NCC(F)(F)F)CCC1)c1ccc(/C=C/C(c2cc(Cl)c(Cl)c(Cl)c2)C(F)(F)F)cc1Cl (stereo not shown) [Compound F4]	50 to 100%	50 to 100%
Cc1cc(/C=C/C(c2cc(Cl)c(Cl)c(Cl)c2)C(F)(F)F)ccc1C(=O)NC1(C(=O)NCC(F)(F)F)CC1 (stereo not shown) [Compound F2]	50 to 100%	50 to 100%
O=C(NC1(C(=O)NCC(F)(F)F)CC1)c1ccc(/C=C/C(c2cc(Cl)cc(Cl)c2)C(F)(F)C(F)(F)F)cc1C(F)(F)F (stereo not shown) [Compound P1045]	50 to 100%	50 to 100%
O=C(NC1(C(=O)NCc2cccc(C(F)(F)F)c2)CC1)c1ccc(/C=C/C(c2cc(Cl)c(Cl)c(Cl)c2)C(F)(F)F)cc1Br (stereo not shown) [FA26]	50 to 100%	50 to 100%
O=C(NC1(C(=O)NCCC(F)(F)F)CC1)c1ccc(/C=C/C(c2cc(Cl)c(Cl)c(Cl)c2)C(F)(F)F)cc1Br (stereo not shown) [Compound P1033]	50 to 100%	50 to 100%
CC(C)CNC(=O)C1(NC(=O)c2ccc(/C=C/C(c3cc(Cl)c(Cl)c(Cl)c3)C(F)(F)F)cc2Br)CC1 (stereo not shown) [FA30]	50 to 100%	50 to 100%
O=C(NC1(C(=O)NCC(F)(F)F)CC1)c1ccc(/C=C/C(c2cc(Br)c(Cl)c(Br)c2)C(F)(F)F)cc1C(F)(F)F (stereo not shown) [FA7]	50 to 100%	50 to 100%
O=C(NC1(C(=O)NCc2cccc(Cl)c2)CC1)c1ccc(/C=C/C(c2cc(Cl)c(Cl)c(Cl)c2)C(F)(F)F)cc1Br (stereo not shown) [FA27]	50 to 100%	50 to 100%
O=C(NC1(C(=O)NC2CCCCC2)CC1)c1ccc(/C=C/C(c2cc(Cl)c(Cl)c(Cl)c2)C(F)(F)F)cc1Br (stereo not shown) [FA22]	50 to 100%	0%
O=C(NC1(C(=O)Nc2cccc(Cl)c2)CC1)c1ccc(/C=C/C(c2cc(Cl)c(Cl)c(Cl)c2)C(F)(F)F)cc1Br (stereo not shown) [FA38]	0 to 50%	0 to 50%
Cc1cc(C(/C=C/c2ccc(C(=O)NC3(C(=O)NCC(F)(F)F)CC3)c(Br)c2)C(F)(F)F)cc(C)c1F (stereo not shown) [Compound P333]	50 to 100%	50 to 100%
O=C(NC1(C(=O)NCC(F)(F)F)CC1)c1ccc(/C=C/C(c2cccc(OC(F)(F)F)c2)C(F)(F)F)cc1C(F)(F)F (stereo not shown) [Compound P155]	50 to 100%	50 to 100%
O=C(NC1(C(=O)NC2COC2)CC1)c1ccc(/C=C/C(c2cc(Cl)c(Cl)c(Cl)c2)C(F)(F)F)cc1Br (stereo not shown) [FA20]	50 to 100%	50 to 100%
O=C(NC1(C(=O)NC2CCCC2)CC1)c1ccc(/C=C/C(c2cc(Cl)c(Cl)c(Cl)c2)C(F)(F)F)cc1Br (stereo not shown) [FA17]	50 to 100%	50 to 100%
CC(F)(F)C(/C=C/c1ccc(C(=O)NC2(C(=O)NCC(F)(F)F)CC2)c(Br)c1)c1ccc(Cl)c(Cl)c1 (stereo not shown) [FA12]	50 to 100%	50 to 100%
COCCNC(=O)C1(NC(=O)c2ccc(/C=C/C(c3cc(Cl)c(Cl)c(Cl)c3)C(F)(F)F)cc2Br)CC1 (stereo not shown) [FA28]	50 to 100%	50 to 100%
O=C(NC1(C(=O)NCC(F)(F)F)CC1)c1ccc(/C=C/C(c2cc(Cl)cc(Cl)c2)C(F)(F)F)cc1C(F)(F)F (stereo not shown) [Compound P1050]	50 to 100%	50 to 100%

Structure (SMILES)	mortality at 50 µg/cm2 [1]	mortality at 50 µg/cm2 [2]
O=C(NC1(C(=O)NCC(F)(F)F)CC1)c1ccc(/C=C/C(c2cccc(OC(F)(F)F)c2)C(F)(F)F)cc1Br (stereo not shown) [Compound P153]	50 to 100%	50 to 100%
O=C(NC1(C(=O)NCC(F)(F)F)CC1)c1ccc(/C=C/C(c2cc(Cl)c(Cl)c(Cl)c2)C(F)(F)F)cc1Br (stereo not shown) [Compound F3]	50 to 100%	50 to 100%
CN(Cc1ccc(Br)cc1)C(=O)C1(NC(=O)c2ccc(/C=C/C(c3cc(Cl)c(Cl)c(Cl)c3)C(F)(F)F)cc2Br)CC1 (stereo not shown) [FA44]	50 to 100%	50 to 100%
O=C(NC1(C(=O)NCC(F)(F)F)CC1)c1ccc(/C=C/C(c2cc(Cl)cc(Cl)c2)C(F)(F)C(F)(F)F)cc1Br (stereo not shown) [Compound P1043]	50 to 100%	50 to 100%
O=C(NC1(C(=O)NCC(F)(F)F)CC1)c1ccc(/C=C/[C@H](c2cc(Cl)c(Cl)c(Cl)c2)C(F)(F)F)cc1C(F)(F)F (single isomer, unassigned) [Compound F8A]	50 to 100%	50 to 100%
O=C(NC1(C(=O)NCC(F)(F)F)CC1)c1ccc(/C=C/C(c2cc(Br)cc(Br)c2)C(F)(F)F)cc1C(F)(F)F (stereo not shown) [Compound P1198]	50 to 100%	50 to 100%
Cc1cc(C(/C=C/c2ccc(C(=O)NC3(C(=O)NCC(F)(F)F)CC3)c(Br)c2)C(F)(F)F)ccc1F (stereo not shown) [Compound P693]	50 to 100%	50 to 100%
O=C(NC1(C(=O)NCc2ccccc2Cl)CC1)c1ccc(/C=C/C(c2cc(Cl)c(Cl)c(Cl)c2)C(F)(F)F)cc1Br (stereo not shown) [FA29]	50 to 100%	50 to 100%
COc1ccccc1CN(C)C(=O)C1(NC(=O)c2ccc(/C=C/C(c3cc(Cl)c(Cl)c(Cl)c3)C(F)(F)F)cc2Br)CC1 (stereo not shown) [FA46]	50 to 100%	0 to 50%
O=C(NC1(C(=O)Nc2cccc(C(F)(F)F)c2)CC1)c1ccc(/C=C/C(c2cc(Cl)c(Cl)c(Cl)c2)C(F)(F)F)cc1Br (stereo not shown) [FA37]	0%	0 to 50%
COc1ccc(N(C)C(=O)C2(NC(=O)c3ccc(/C=C/C(c4cc(Cl)c(Cl)c(Cl)c4)C(F)(F)F)cc3Br)CC2)cc1 (stereo not shown) [FA41]	50 to 100%	50 to 100%
O=C(NC1(C(=O)NCC(F)(F)F)CC1)c1ccc(/C=C/C(c2cc(Cl)c(Br)c(Cl)c2)C(F)(F)F)cc1C(F)(F)F (stereo not shown) [FA8]	50 to 100%	50 to 100%
O=C(NC1(C(=O)NCC(F)(F)F)CC1)c1ccc(/C=C/C(c2cc(F)cc(Br)c2)C(F)(F)F)cc1Br (stereo not shown) [Compound P198]	50 to 100%	50 to 100%
O=C(NC1(C(=O)NCCn2cccn2)CC1)c1ccc(/C=C/C(c2cc(Cl)c(Cl)c(Cl)c2)C(F)(F)F)cc1Br (stereo not shown) [FA23]	50 to 100%	50 to 100%
O=C(NC1(C(=O)NCC(F)(F)F)CC1)c1ccc(/C=C/C(c2ccc(Cl)c(Cl)c2)C(F)(F)F)cc1Br (stereo not shown) [Compound P1093]	50 to 100%	50 to 100%
O=C(NC1(C(=O)NCC(F)(F)F)CC1)c1ccc(/C=C/C(c2cc(Cl)c(Cl)cc2Cl)C(F)(F)F)cc1C(F)(F)F (stereo not shown) [Compound P110]	50 to 100%	50 to 100%
Cc1cc(C(/C=C/c2ccc(C(=O)NC3(C(=O)NCC(F)(F)F)CC3)c(C(F)(F)F)c2)C(F)(F)F)ccc1Cl (stereo not shown) [Compound P245]	50 to 100%	50 to 100%
O=C(NC1(C(=O)NCC(F)(F)F)CC1)c1ccc(/C=C/C(c2ccc(Cl)c(Cl)c2)C(F)(F)F)cc1C(F)(F)F (stereo not shown) [Compound P1095]	50 to 100%	50 to 100%
O=C(NC1(C(=O)NCC(F)(F)F)CC1)c1ccc(/C=C/C(c2cc(Cl)cc(Br)c2)C(F)(F)F)cc1Br (stereo not shown) [Compound P378]	50 to 100%	50 to 100%
O=C(NC1(C(=O)Nc2ccc(C(F)(F)F)cc2)CC1)c1ccc(/C=C/C(c2cc(Cl)c(Cl)c(Cl)c2)C(F)(F)F)cc1Br (stereo not shown) [FA36]	0%	0%
O=C(NC1(C(=O)NCC(F)(F)F)CC1)c1ccc(/C=C/[C@@H](c2cc(Cl)c(Cl)c(Cl)c2)C(F)(F)F)cc1C(F)(F)F (single isomer, unassigned) [Compound F8B]	50 to 100%	50 to 100%
CCNC(=O)C1(NC(=O)c2ccc(/C=C/C(c3cc(Cl)c(Cl)c(Cl)c3)C(F)(F)F)cc2Br)CC1 (stereo not shown) [Compound P1023]	50 to 100%	50 to 100%

— US9212164B2, “Pesticidal compositions and processes related thereto” (Dow AgroSciences LLC, priority 2012, dated 2015)
